Test results reported in ChEMBL document CHEMBL1134059, “Synthesis and antifungal activities of novel 1,3-beta-D-glucan synthase inhibitors. Part 2” (Bioorg Med Chem Lett, 2001).
Converted amounts (≈) assume the structure as drawn.

Key:
[1] = biological target: Beta-1,3-glucan synthase (Candida albicans, UniProt O13428); test: In vitro inhibitory activity against Beta glucan synthase
[2] = tested on: Candida albicans; test: Antifungal activity against Candida albicans KB fluconazole resistant strain.; type: functional
[3] = species on record: Mus musculus; test: Hepatotoxicity using inclusion-body formation test in hepatocytes of mice; type: functional, Hepatocyte
[4] = tested on: Pichia kudriavzevii; test: Antifungal activity against Candida krusei ATCC 20579; type: functional
[5] = tested on: Candida albicans; test: In vitro antifungal activity against Candida albicans CY1002; type: functional, organism-based
[6] = tested on: Candida tropicalis; test: Antifungal activity against Candida tropicalis ATCC 13803; type: functional
[7] = tested on: Mus musculus; test: In vivo efficacy against Aspergillus fumigatus CF1083 1E4 conidia/g for pulmonary aspergillosis in mice after iv treatment on day 14; type: functional; details: 336 h
[8] = tested on: Candida albicans; test: Antifungal activity against Candida albicans ATCC 48130; type: functional
[9] = tested on: Scedosporium boydii; test: Antifungal activity against Scedosporium […] IFM40731N.; type: functional
[10] = tested on: Aspergillus fumigatus; test: Antifungal activity against Aspergillus fumigatus MTU06002; type: functional
[11] = tested on: Nakaseomyces glabratus; test: Antifungal activity against Candida glabrata ATCC 2001; type: functional
[12] = tested on: Lomentospora prolificans; test: Antifungal activity against Scedosporium prolificans ATCC 20054; type: functional
[13] = tested on: Mus musculus; test: In vivo efficacy against Candida albicans CY1002 5E6 cells for systemic candidiasis in mice after iv treatment on day 7; type: functional; details: CY1002 5E6, iv, 168 h
[14] = tested on: Candida albicans; test: In vitro antifungal activity against Candida albicans CY1002 using 80 percent serum; type: functional, organism-based

Beta-1,3-glucan synthase, sequence (O13428 whole entry): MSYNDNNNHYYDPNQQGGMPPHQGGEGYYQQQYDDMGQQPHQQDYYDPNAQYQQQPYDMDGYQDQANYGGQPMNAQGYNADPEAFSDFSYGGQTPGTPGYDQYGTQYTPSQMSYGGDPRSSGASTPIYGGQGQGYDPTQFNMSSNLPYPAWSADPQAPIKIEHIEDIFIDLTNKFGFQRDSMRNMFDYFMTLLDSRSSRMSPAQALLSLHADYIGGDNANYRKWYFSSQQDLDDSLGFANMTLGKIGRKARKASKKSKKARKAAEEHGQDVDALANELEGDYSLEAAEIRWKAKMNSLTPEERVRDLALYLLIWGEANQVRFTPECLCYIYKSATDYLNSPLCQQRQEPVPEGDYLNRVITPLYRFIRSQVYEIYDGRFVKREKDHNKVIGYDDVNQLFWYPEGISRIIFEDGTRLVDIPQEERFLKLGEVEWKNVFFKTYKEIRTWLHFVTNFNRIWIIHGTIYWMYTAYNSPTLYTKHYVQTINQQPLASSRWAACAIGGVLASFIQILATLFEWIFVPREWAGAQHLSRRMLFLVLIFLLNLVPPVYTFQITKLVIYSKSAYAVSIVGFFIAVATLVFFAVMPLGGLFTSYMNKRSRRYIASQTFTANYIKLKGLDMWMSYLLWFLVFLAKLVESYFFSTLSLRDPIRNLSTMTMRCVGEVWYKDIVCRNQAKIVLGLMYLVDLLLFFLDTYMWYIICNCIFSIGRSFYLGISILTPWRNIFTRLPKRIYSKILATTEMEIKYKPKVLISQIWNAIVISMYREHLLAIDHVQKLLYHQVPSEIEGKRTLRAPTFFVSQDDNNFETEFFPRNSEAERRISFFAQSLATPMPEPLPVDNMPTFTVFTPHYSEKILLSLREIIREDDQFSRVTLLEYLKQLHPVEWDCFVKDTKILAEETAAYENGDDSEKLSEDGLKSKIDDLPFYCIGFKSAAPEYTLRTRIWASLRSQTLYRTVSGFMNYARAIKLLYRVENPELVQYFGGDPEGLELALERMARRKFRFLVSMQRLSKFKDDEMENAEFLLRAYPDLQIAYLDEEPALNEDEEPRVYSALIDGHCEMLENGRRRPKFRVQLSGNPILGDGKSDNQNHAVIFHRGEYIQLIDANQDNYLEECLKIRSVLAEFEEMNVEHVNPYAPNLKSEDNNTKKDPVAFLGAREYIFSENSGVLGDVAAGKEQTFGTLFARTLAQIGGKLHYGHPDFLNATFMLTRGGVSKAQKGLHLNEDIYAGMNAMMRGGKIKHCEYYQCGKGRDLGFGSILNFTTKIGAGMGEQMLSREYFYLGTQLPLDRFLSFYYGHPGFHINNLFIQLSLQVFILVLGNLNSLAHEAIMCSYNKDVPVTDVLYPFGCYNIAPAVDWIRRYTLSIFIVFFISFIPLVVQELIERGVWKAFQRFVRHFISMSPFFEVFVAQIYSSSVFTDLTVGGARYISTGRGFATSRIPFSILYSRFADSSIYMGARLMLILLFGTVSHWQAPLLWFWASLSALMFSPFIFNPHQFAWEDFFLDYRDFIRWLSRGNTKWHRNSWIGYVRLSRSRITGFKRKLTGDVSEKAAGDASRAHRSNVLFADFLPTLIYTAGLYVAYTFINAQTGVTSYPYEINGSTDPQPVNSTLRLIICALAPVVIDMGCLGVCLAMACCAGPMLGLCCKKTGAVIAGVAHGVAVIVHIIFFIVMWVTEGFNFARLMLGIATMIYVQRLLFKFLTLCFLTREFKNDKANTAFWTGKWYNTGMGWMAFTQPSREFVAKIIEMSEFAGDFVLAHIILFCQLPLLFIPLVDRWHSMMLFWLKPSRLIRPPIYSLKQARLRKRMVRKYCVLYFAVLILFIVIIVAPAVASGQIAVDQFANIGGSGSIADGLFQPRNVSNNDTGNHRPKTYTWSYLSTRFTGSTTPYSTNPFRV

Structure (SMILES)	IC50 [1]	MIC [2]	Observed at [3]	MIC [4]	IC50 [5]	MIC [6]	ED50 [7]	MIC [8]	MIC [9]	MIC [10]	MIC [11]	MIC [12]	ED50 [13]	IC50 [14]
CC[C@H](C)C[C@H](C)CCCCCCCCC(=O)N[C@H]1C[C@@H](O)[C@@H](NCCN)NC(=O)[C@@H]2[C@@H](O)CCN2C(=O)[C@H]([C@H](O)CCN)NC(=O)[C@H]([C@H](O)[C@@H](O)c2ccc(O)cc2)NC(=O)[C@@H]2C[C@@H](O)CN2C(=O)[C@H]([C@@H](C)O)NC1=O	1300 pM													
CCCCCCCCCCCCC[C@@H]1CC(=O)N[C@@H]([C@@H](C)O)C(=O)N[C@H](C)C(=O)N[C@@H](Cc2ccc(O)cc2)C(=O)N[C@@H](C(C)C)C(=O)N2C[C@H](O)C[C@H]2C(=O)N[C@@H]([C@@H](C)O)C(=O)N[C@@H]([C@@H](C)O)C(=O)N2CC[C@H](O)[C@H]2C(=O)N[C@@H]([C@H](O)CC(N)=O)C(=O)NCC(=O)N[C@@H]([C@@H](C)O)C(=O)N[C@@H](CCCN(CCN)C(=O)[C@H](CCCN)N(CCN)CCN)C(=O)O1	200 pM	0.35 µg/mL (≈ 0.197 µM)	100 µg/mL	0.28 µg/mL (≈ 0.158 µM)	0.31 µg/mL (≈ 0.174 µM)	0.62 µg/mL (≈ 0.349 µM)	5.2 mg/kg	0.37 µg/mL (≈ 0.208 µM)	0.35 µg/mL (≈ 0.197 µM)	0.34 µg/mL (≈ 0.191 µM)	1.3 µg/mL (≈ 0.732 µM)	2.2 µg/mL (≈ 1.24 µM)	0.08 mg/kg	0.24 µg/mL (≈ 0.135 µM)
CCCCCCCCCCCCC[C@@H]1CC(=O)N[C@@H]([C@@H](C)O)C(=O)N[C@H](C)C(=O)N[C@@H](Cc2ccc(O)cc2)C(=O)N[C@@H](C(C)C)C(=O)N2C[C@H](O)C[C@H]2C(=O)N[C@@H]([C@@H](C)O)C(=O)N[C@@H]([C@@H](C)O)C(=O)N2CC[C@H](O)[C@H]2C(=O)N[C@@H]([C@H](O)CC(N)=O)C(=O)NCC(=O)N[C@@H]([C@@H](C)O)C(=O)N[C@@H](CCCN(CCCN)C(=O)[C@H](N)CCCN)C(=O)O1	830 pM		30 µg/mL		0.37 µg/mL (≈ 0.217 µM)		5.2 mg/kg						0.05 mg/kg	0.27 µg/mL (≈ 0.158 µM)
CCCCCCCCCCCCC[C@@H]1CC(=O)N[C@@H]([C@@H](C)O)C(=O)N[C@H](C)C(=O)N[C@@H](Cc2ccc(O)cc2)C(=O)N[C@@H](C(C)C)C(=O)N2C[C@H](O)C[C@H]2C(=O)N[C@@H]([C@@H](C)O)C(=O)N[C@@H]([C@@H](C)O)C(=O)N2CC[C@H](O)[C@H]2C(=O)N[C@@H]([C@H](O)CC(N)=O)C(=O)NCC(=O)N[C@@H]([C@@H](C)O)C(=O)N[C@@H](CCCN(CCCN)C(=O)[C@@H](N)CCCN)C(=O)O1	890 pM		30 µg/mL		0.47 µg/mL (≈ 0.276 µM)		8.7 mg/kg						0.07 mg/kg	0.27 µg/mL (≈ 0.158 µM)
CCCCCCCCCCCCC[C@@H]1CC(=O)N[C@@H]([C@@H](C)O)C(=O)N[C@H](C)C(=O)N[C@@H](Cc2ccc(O)cc2)C(=O)N[C@@H](C(C)C)C(=O)N2C[C@H](O)C[C@H]2C(=O)N[C@@H]([C@@H](C)O)C(=O)N[C@@H]([C@@H](C)O)C(=O)N2CC[C@H](O)[C@H]2C(=O)N[C@@H]([C@H](O)CC(N)=O)C(=O)NCC(=O)N[C@@H]([C@@H](C)O)C(=O)N[C@@H](CCCNC(=O)[C@@H](CCCN)N(CCN)CCN)C(=O)O1	630 pM	0.68 µg/mL (≈ 0.392 µM)	30 µg/mL	0.54 µg/mL (≈ 0.311 µM)	0.31 µg/mL (≈ 0.179 µM)	0.35 µg/mL (≈ 0.202 µM)	11.6 mg/kg	0.31 µg/mL (≈ 0.179 µM)		0.67 µg/mL (≈ 0.386 µM)	1.4 µg/mL (≈ 0.807 µM)		0.13 mg/kg	0.31 µg/mL (≈ 0.179 µM)
CCCCCCCCCCCCC[C@@H]1CC(=O)N[C@@H]([C@@H](C)O)C(=O)N[C@H](C)C(=O)N[C@@H](Cc2ccc(O)cc2)C(=O)N[C@@H](C(C)C)C(=O)N2C[C@H](O)C[C@H]2C(=O)N[C@@H]([C@@H](C)O)C(=O)N[C@@H]([C@@H](C)O)C(=O)N2CC[C@H](O)[C@H]2C(=O)N[C@@H]([C@H](O)CC(N)=O)C(=O)NCC(=O)N[C@@H]([C@@H](C)O)C(=O)N[C@@H](CCCNC(=O)[C@H](CCCN)N(CCN)CCN)C(=O)O1	900 pM		100 µg/mL		0.37 µg/mL (≈ 0.213 µM)		8.7 mg/kg						0.33 mg/kg	0.55 µg/mL (≈ 0.317 µM)
CCCCCCCCCCCCC[C@@H]1CC(=O)N[C@H]([C@@H](C)O)C(=O)N[C@H](C)C(=O)N[C@@H](Cc2ccc(O)cc2)C(=O)N[C@@H](C(C)C)C(=O)N2C[C@H](O)C[C@H]2C(=O)N[C@H]([C@@H](C)O)C(=O)N[C@@H]([C@@H](C)O)C(=O)N2CC[C@H](O)[C@H]2C(=O)N[C@@H]([C@H](O)CC(N)=O)C(=O)NCC(=O)N[C@H]([C@@H](C)O)C(=O)N[C@@H](CCCN(CCCN)C(=O)[C@@H](CCCN)N(CCN)CCN)C(=O)O1	250 pM	0.31 µg/mL (≈ 0.173 µM)	100 µg/mL	0.28 µg/mL (≈ 0.156 µM)	0.39 µg/mL (≈ 0.218 µM)	0.56 µg/mL (≈ 0.313 µM)	5.8 mg/kg	0.37 µg/mL (≈ 0.207 µM)	0.37 µg/mL (≈ 0.207 µM)	0.58 µg/mL (≈ 0.324 µM)	1.2 µg/mL (≈ 0.67 µM)	0.37 µg/mL (≈ 0.207 µM)	0.12 mg/kg	0.26 µg/mL (≈ 0.145 µM)
